# Experimental data taken from ChEMBL document CHEMBL1201862, “PubChem BioAssay data set” (2004).
#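 All cell lines were grown in 96-well plates and treated with compound for 48 hours. GI50 is the concentration that inhibits growth by half.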 Active and inactive are the calls of the source. No stated cut-off is given here; in the data, active = GI50 up to about 1.1 µM and inactive = higher.
# Columns and labels:
# Assay in all cases: NCI tumour cell line growth inhibition, 48 h
# [1] = system: IGROV-1
# [2] = system: A549
# [3] = system: SK-MEL-5
# [4] = system: HT-29
# [5] = system: TK-10
# [6] = system: UO-31
# [7] = system: OVCAR-4
# [8] = system: KM12
# [9] = system: SW-620
# [10] = system: Malme-3M
# [11] = system: SR
# [12] = system: HCT-116
# [13] = system: CCRF-CEM
# [14] = system: RPMI-8226
# [15] = system: OVCAR-3
# [16] = system: A498
# [17] = system: UACC-62
# [18] = system: NCI-H522
# [19] = system: MCF7
SMILES,GI50 [1],GI50 [2],GI50 [3],GI50 [4],GI50 [5],GI50 [6],GI50 [7],GI50 [8],GI50 [9],GI50 [10],GI50 [11],GI50 [12],GI50 [13],GI50 [14],GI50 [15],GI50 [16],GI50 [17],GI50 [18],GI50 [19]
Cc1ccccc1NC(=O)/C=N/O,> 100 µM (inactive),> 100 µM (inactive),> 100 µM (inactive),> 100 µM (inactive),> 100 µM (inactive),> 100 µM (inactive),> 100 µM (inactive),> 100 µM (inactive),> 100 µM (inactive),> 100 µM (inactive),> 100 µM (inactive),> 100 µM (inactive),< 0.01 µM (active),> 100 µM (inactive),> 100 µM (inactive),> 100 µM (inactive),14.6 µM (inactive),> 100 µM (inactive),
COc1ccc(/C(Cl)=C(\C=O)c2ccc(OC)c(OC)c2)cc1OC,95.3 µM (inactive),> 100 µM (inactive),> 81.7 µM (inactive),41.6 µM (inactive),> 100 µM (inactive),> 100 µM (inactive),63.8 µM (inactive),32.5 µM (inactive),> 100 µM (inactive),56.5 µM (inactive),> 100 µM (inactive),> 91.4 µM (inactive),> 83.9 µM (inactive),70.3 µM (inactive),> 46.8 µM (inactive),> 94.4 µM (inactive),> 100 µM (inactive),43.5 µM (inactive),56.8 µM (inactive)
O=C1C(Cl)C(c2ccccc2O)N1n1cnc2ccccc2c1=O (stereo not drawn),61.7 µM (inactive),63.1 µM (inactive),56.2 µM (inactive),87.3 µM (inactive),> 100 µM (inactive),50 µM (inactive),23.7 µM (inactive),> 100 µM (inactive),58.7 µM (inactive),75.3 µM (inactive),27.4 µM (inactive),64.3 µM (inactive),19.8 µM (inactive),6.75 µM (inactive),> 100 µM (inactive),,44.3 µM (inactive),23.6 µM (inactive),
O=C1C(Br)=CC2(C=C1Br)CCNC1=C2C(=O)c2cccnc2C1=O,9.18 µM (inactive),14.8 µM (inactive),3.77 µM (inactive),18.2 µM (inactive),19.8 µM (inactive),17.5 µM (inactive),17.2 µM (inactive),16.1 µM (inactive),11.5 µM (inactive),9.46 µM (inactive),2.93 µM (inactive),13.1 µM (inactive),6.22 µM (inactive),8.93 µM (inactive),6.01 µM (inactive),,3.89 µM (inactive),4.65 µM (inactive),13.8 µM (inactive)
COc1cc(/C=C2\CCC/C(=C\c3ccc(OC(=O)CCCCC4CCSS4)c(OC)c3)C2=O)ccc1OC(=O)CCCCC1CCSS1 (stereo not drawn),> 100 µM (inactive),> 100 µM (inactive),> 100 µM (inactive),> 100 µM (inactive),> 100 µM (inactive),> 100 µM (inactive),> 100 µM (inactive),> 100 µM (inactive),> 100 µM (inactive),> 100 µM (inactive),,> 100 µM (inactive),91.2 µM (inactive),> 100 µM (inactive),> 100 µM (inactive),> 100 µM (inactive),> 100 µM (inactive),> 100 µM (inactive),> 100 µM (inactive)
Cc1ccccc1NC(=O)/C(=N\NC(N)=S)C(C#N)c1ccccc1 (stereo not drawn),> 100 µM (inactive),> 100 µM (inactive),> 100 µM (inactive),> 100 µM (inactive),> 100 µM (inactive),> 100 µM (inactive),> 100 µM (inactive),> 100 µM (inactive),> 100 µM (inactive),> 100 µM (inactive),> 100 µM (inactive),> 100 µM (inactive),> 100 µM (inactive),> 100 µM (inactive),> 100 µM (inactive),> 100 µM (inactive),> 100 µM (inactive),> 100 µM (inactive),
CC12CCC(=O)C[C@H]1CCC(OC=O)C2Br (stereo partly drawn),> 100 µM (inactive),> 100 µM (inactive),> 100 µM (inactive),> 100 µM (inactive),> 100 µM (inactive),> 100 µM (inactive),> 100 µM (inactive),> 100 µM (inactive),> 100 µM (inactive),> 100 µM (inactive),> 100 µM (inactive),> 100 µM (inactive),> 100 µM (inactive),> 100 µM (inactive),> 100 µM (inactive),> 100 µM (inactive),> 100 µM (inactive),> 100 µM (inactive),
CCC[C@H]1C(=O)N=C(N)N1C(=O)OCc1ccccc1,> 100 µM (inactive),,> 100 µM (inactive),> 100 µM (inactive),> 100 µM (inactive),86.9 µM (inactive),> 100 µM (inactive),> 100 µM (inactive),> 100 µM (inactive),> 100 µM (inactive),> 100 µM (inactive),> 100 µM (inactive),,> 100 µM (inactive),> 100 µM (inactive),> 100 µM (inactive),> 100 µM (inactive),> 100 µM (inactive),> 100 µM (inactive)
